Each structure is given as a SMILES string. Converted amounts (≈) assume the structure as drawn.

The subject of the experiment is MCF7. The experiment can be described thus: Cytotoxicity against Homo sapiens (human) MCF7 cells after 48 hr by SRB assay. In kind it is functional, cell-based. The conditions noted are these: MCF7, 48 h.
Molecule `Cc1c(CCCl)c(Cl)n2c(nc3ccc(Cl)cc32)c1C#N` came in with an IC50 of 7.09 µg/mL (≈ 20.9 µM). As for `Cc1cc(=O)n2c([nH]c3ccc(Cl)cc32)c1C#N`, half-maximal inhibition (IC50) was put at 3.43 µg/mL (≈ 13.3 µM). The figure for `Cc1c(CCO)c(=O)n2c([nH]c3ccc(Cl)cc32)c1C#N` is 14.6 µg/mL (≈ 48.5 µM); for `Cc1cc(Cl)n2c(nc3ccc(Cl)cc32)c1C#N` it is 8.61 µg/mL (≈ 31.2 µM); for `Cc1c(CCN2CCN(c3ccccc3F)CC2)c(N2CCN(c3ccccc3F)CC2)n2c(nc3ccc(C(=O)O)cc32)c1C#N` it is 9.9 µg/mL (≈ 15.6 µM). The figure for `Cc1c(CCN2CCN(c3ccccc3F)CC2)c(N2CCN(c3ccccc3F)CC2)n2c(nc3ccc(Cl)cc32)c1C#N` is 14 µg/mL (≈ 22.4 µM); for `Cc1cc(Cl)n2c(nc3ccc(C(=O)O)cc32)c1C#N` it is 12.8 µg/mL (≈ 44.9 µM). With `Cc1cc(N2CCN(c3ccccc3F)CC2)n2c(nc3ccc(C(=O)O)cc32)c1C#N`, the IC50 is 12.6 µg/mL (≈ 29.3 µM). The figure for `Cc1cc(=O)n2c([nH]c3ccc(C(=O)O)cc32)c1C#N` is 14.7 µg/mL (≈ 55 µM).

`N#Cc1c(-c2ccccc2)cc(=O)n2c1[nH]c1ccc(Cl)cc12`: the IC50 turned out to be 3.58 µg/mL (≈ 11.2 µM). The molecule `Cc1c(CCO)c(=O)n2c([nH]c3ccc(C(=O)O)cc32)c1C#N` gave an IC50 of 10.5 µg/mL (≈ 33.9 µM). `Cc1cc(N2CCN(c3ccccc3F)CC2)n2c(nc3ccc(Cl)cc32)c1C#N` yielded an IC50 of 5.72 µg/mL (≈ 13.6 µM). The figure for `N#Cc1c(-c2ccccc2)cc(N2CCN(c3ccccc3F)CC2)n2c1nc1ccc(Cl)cc12` is 10.4 µg/mL (≈ 21.6 µM); for `N#Cc1c(-c2ccccc2)cc(Cl)n2c1nc1ccc(C(=O)O)cc12` it is 3.58 µg/mL (≈ 10.3 µM); for `Cc1c(CCCl)c(Cl)n2c(nc3ccc(C(=O)O)cc32)c1C#N` it is 9.07 µg/mL (≈ 26 µM). The molecule `N#Cc1c(-c2ccccc2)cc(N2CCN(c3ccccc3F)CC2)n2c1nc1ccc(C(=O)O)cc12` came in with an IC50 of 17.6 µg/mL (≈ 35.9 µM).

Consider `N#Cc1c(-c2ccccc2)cc(=O)n2c1[nH]c1ccc(C(=O)O)cc12`, for which the IC50 stood at 3.99 µg/mL (≈ 12.1 µM). The figure for `N#Cc1c(-c2ccccc2)cc(Cl)n2c1nc1ccc(Cl)cc12` is 3.89 µg/mL (≈ 11.5 µM).

The record behind these values is ChEMBL document CHEMBL3045437, “Synthesis of potential anticancer derivatives of pyrido[1,2-a]benzimidazoles” (Med Chem Res, 2012).
